From ChEMBL document CHEMBL1799935, “Identification of new inhibitors of protein kinase R guided by statistical modeling” (Bioorg Med Chem Lett, 2011) come the findings set out here.

Activity calls are given as the source filed them. The rule behind the calls is not given here.

One series deals with T1, Interferon-induced, double-stranded RNA-activated protein kinase (Homo sapiens, UniProt P19525). Briefly: Inhibition of human recombinant PKR autophosphorylation using poly[I:C] after 10 mins by luminescent assay.
T1 sequence (P19525 whole entry): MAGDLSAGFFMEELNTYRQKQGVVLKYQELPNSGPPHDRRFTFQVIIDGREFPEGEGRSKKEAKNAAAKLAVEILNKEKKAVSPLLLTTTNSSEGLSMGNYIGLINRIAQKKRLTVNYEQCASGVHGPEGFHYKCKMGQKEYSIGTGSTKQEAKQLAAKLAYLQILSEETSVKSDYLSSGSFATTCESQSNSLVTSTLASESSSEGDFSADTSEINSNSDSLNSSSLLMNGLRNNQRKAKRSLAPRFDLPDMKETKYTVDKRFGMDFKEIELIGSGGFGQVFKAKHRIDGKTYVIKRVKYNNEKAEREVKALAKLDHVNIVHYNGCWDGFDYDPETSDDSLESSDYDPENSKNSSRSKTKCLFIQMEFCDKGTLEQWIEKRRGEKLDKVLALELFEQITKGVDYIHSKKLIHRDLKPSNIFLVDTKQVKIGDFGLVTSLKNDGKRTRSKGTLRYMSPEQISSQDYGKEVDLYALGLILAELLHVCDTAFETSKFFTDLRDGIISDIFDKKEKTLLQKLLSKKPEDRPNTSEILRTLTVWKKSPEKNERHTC
Settings: not given
The term IC50 denotes the concentration that inhibits the measured activity by half. As to `O=C1Nc2cc(Br)ccc2/C1=C1/Nc2ccccc2/C1=N\O` [6BIO], the IC50 came to 0.6 µM. With `Nc1cccc(-c2cc3c(Oc4cccc(O)c4)ncnc3[nH]2)c1`, the IC50 was found to be 4 µM. Same read-out and setting: as for `Cc1[nH]c2ccccc2c1-c1ccnc(NC(CO)C(C)C)n1` (configuration not stated), the figure is 50 µM; as for `COc1ccc2c(c1)/C(=C/c1cnc[nH]1)C(=O)N2` [SU-9516], 5 µM. The same measure, in the same setting: as for `Cc1[nH]c2ccccc2c1-c1ccnc(Nc2cccnc2)n1`, the figure is 0.1 µM; as for `O=C1NC(=O)/C(=C/c2c[nH]c3ccccc23)N1`, 10.5 µM. For `NC(=O)Nc1sc(-c2ccc(F)cc2)cc1C(N)=O`, the IC50 was 0.25 µM. As to `Cc1[nH]c2ccccc2c1-c1ccnc(NCc2cccnc2)n1`, the IC50 was found to be 45 µM. On to `O=C1NC(=O)c2c1c1c3ccccc3[nH]c1n1cncc21` [ISOGRANULATIMIDE], for which the IC50 is less than 0.1 µM. On the same count and under the same terms, as for `N#C/C(=C1/Nc2ccccc2S1)c1ccnc(NCCc2cccnc2)n1`, the figure is less than 0.1 µM; as for `Cc1[nH]c2ccccc2c1-c1ccnc(Nc2ccccc2Cl)n1`, 19 µM. For `O=C(O)/C=C/c1cc(Br)c(Br)c(Br)c1Br`, the IC50 was 7 µM. On the same count and under the same terms, the value for `COc1ccc2[nH]c(C)c(-c3ccnc(Nc4ccc(Cl)cc4)n3)c2c1` was 50 µM. Same read-out and setting: as for `COc1ccc2[nH]c(C)c(-c3ccnc(NC4CCCC4)n3)c2c1`, the figure is 1.5 µM; as for `COC(=O)c1ccc2c(-c3ccnc(SCCN(C)C)n3)c[nH]c2c1`, greater than 100 µM. `Cc1[nH]c2ccc(Cl)cc2c1-c1ccnc(Nc2ccc(N3CCN(C)CC3)cc2)n1`: the IC50 came out at 0.1 µM. In the case of `O=C1Cc2ccc(Oc3ccc4c(c3)NC(=O)C4)cc2N1`, the IC50 was 14 µM. Regarding `COC(=O)[C@]1(O)C[C@@H]2O[C@@]1(C)n1c3ccccc3c3c4c(c5c6ccccc6n2c5c31)C(=O)NC4` (single isomer, unassigned), the IC50 was less than 0.1 µM. With `FC(F)(F)c1nnc2ccc(NCCc3c[nH]c4ccccc34)nn12`, the IC50 was found to be 19 µM. For the compound `c1ccc(-c2[nH]c3ccccc3c2-c2ccnc(NCCN3CCOCC3)n2)cc1`, the IC50 is 12 µM. With `CCN(CC)C(=O)c1ccc(Nc2nc(OCC3CCCCC3)c3nc[nH]c3n2)cc1`, the IC50 was found to be 2 µM. Turning to `O=Nc1c(-c2c(O)[nH]c3ccccc23)[nH]c2ccccc12` [INDIRUBIN-3-MONOXIME], the IC50 was less than 0.1 µM.

Turning to `Cc1[nH]c2ccccc2c1-c1ccnc(N2CCOCC2)n1`, the IC50 stood at 90 µM. Regarding `Cc1[nH]c2ccccc2c1-c1ccnc(NCCO)n1`, the IC50 turned out to be 11 µM.

On to `N#Cc1cnc2cnc(NCc3cccnc3)cc2c1Nc1ccc(F)c(Cl)c1`, for which the IC50 amounted to 0.25 µM. With `c1ccc(-c2[nH]c3ccccc3c2-c2ccnc(NCc3cccnc3)n2)cc1`, the IC50 is greater than 100 µM. The same measure, in the same setting: the value for `Cc1[nH]c2ccc(Cl)cc2c1-c1ccnc(NCCN2CCOCC2)n1` was 12 µM.

As to `Fc1ccc(N2CCN(c3nccc(-c4c[nH]c5ccccc45)n3)CC2)cc1`, the IC50 is greater than 100 µM. As to `O=C1NC(=O)/C(=C\c2c[nH]c3ccccc23)N1`, the IC50 was 11 µM. `COCCCNc1nccc(-c2c(C)[nH]c3ccccc23)n1`: the IC50 worked out at 1.5 µM.

Take `Cn1nc2c3c(cccc31)C(=O)c1ccccc1-2`: the IC50 turned out to be 12 µM. Take `Oc1c2ccccc2c2c3c(cccc13)N=N2` [SP-600125]: the IC50 was found to be 8 µM. Consider `CN1CCN(c2ccc(Nc3ncnc4ccc([N+](=O)[O-])cc34)cc2)CC1`, for which the IC50 was determined as 15 µM. With `COC(=O)c1ccc2c(-c3ccnc(NCCO)n3)c[nH]c2c1`, the IC50 is 9 µM. `Nc1n[nH]c2nc3ccccc3nc12` [QUINOXALINE1]: the IC50 was 6 µM. On to `Cc1[nH]c2ccc(Cl)cc2c1-c1ccnc(NC2CCCC2)n1`, for which the IC50 was 8 µM. Regarding `O=C(Nc1cccc(Nc2nccc(Nc3cccc(C(F)(F)F)c3)n2)c1)C1CC1` [ANILINOPYRIMIDINE1], the IC50 worked out at 20 µM. With `O=C1NC(=O)c2c1c1c3ccccc3[nH]c1c1[nH]c3cc(Br)ccc3c21`, the IC50 was 6 µM.

Consider `COC(=O)c1ccc2c(-c3ccnc(NCCN4CCOCC4)n3)c[nH]c2c1`, for which the IC50 was 18 µM. With `Nc1nc(Nc2ccc(OC(F)(F)F)cc2)c2nc[nH]c2n1`, the IC50 was determined as 20 µM. Same read-out and setting: as for `c1cc(-c2cnn3cc(-c4ccc(OCCN5CCCCC5)cc4)cnc23)ccn1` [DORSOMORPHIN], the figure is 16 µM; as for `O=c1nncc(Nc2ccc3cn[nH]c3c2)[nH]1`, 13 µM.

For `Nc1ncnc2[nH]nc(Nc3ccc(F)cc3)c12`, the IC50 was found to be 5 µM. In the case of `OCCNc1nccc(-c2c[nH]c3ccccc23)n1`, the IC50 was 11 µM. For `Cc1[nH]c2ccccc2c1-c1ccnc(N2CCN(c3ccc(F)cc3)CC2)n1`, the IC50 was greater than 100 µM. On to `Cc1[nH]c2ccccc2c1-c1ccnc(N2CCCC2)n1`, for which the IC50 is greater than 100 µM. As to `Cc1[nH]c2ccccc2c1-c1ccnc(Nc2ccc(F)cc2)n1`, the IC50 came to 0.15 µM.

In the case of `COc1ccc(Nc2nccc(-c3c(C)[nH]c4ccc(OC)cc34)n2)cc1`, the IC50 stood at 55 µM. Consider `Cc1[nH]c2ccc(Cl)cc2c1-c1ccnc(N2CCN(c3ccc(F)cc3)CC2)n1`, for which the IC50 is greater than 100 µM. On to `Cc1[nH]c2ccc(Cl)cc2c1-c1ccnc(Nc2cccc(Cl)c2)n1`, for which the IC50 came to 2.5 µM.

For the compound `O=C1NCc2c1c1c3ccccc3n3c1c1c2c2ccccc2n1C1CCC3O1` (configuration not stated), the IC50 came to 0.75 µM. In the case of `Cc1[nH]c2ccccc2c1-c1ccnc(NCCc2c[nH]c3ccccc23)n1`, the IC50 amounted to 9 µM. For the compound `Cc1cc(Nc2nc(-c3ccccc3)nc3ccccc23)[nH]n1`, the IC50 came to 15 µM. With `Cc1[nH]c2ccccc2c1-c1ccnc(Nc2ccc(Cl)cc2)n1`, the half-maximal inhibitory concentration (IC50) was determined as 0.6 µM.

As for `CN1C(=O)NC(=O)/C(=C\c2c[nH]c3ccc(O)cc23)C1=O`, the IC50 is 3 µM. As to `C=C1NNC(=O)/C1=N\Nc1ccc(S(N)(=O)=O)cc1`, the IC50 is 11 µM. Still for that read-out and setting: as for `C=C1NNC(=O)N=C1Nc1ccc2cn[nH]c2c1`, the figure is 16 µM; as for `Cc1[nH]c2ccccc2c1-c1ccnc(Nc2ccc(F)c(F)c2)n1`, 1.5 µM; as for `NCc1ccc(C(=O)N/N=C2\C(=O)Nc3ccc(Br)cc32)cc1`, 12 µM.

Regarding `c1ccc(-c2[nH]c3ccccc3c2-c2ccnc(NC3CCCC3)n2)cc1`, the IC50 was greater than 100 µM. For the compound `Nc1nc(Nc2ccc(S(N)(=O)=O)cc2)nn1C(=O)Nc1c(F)cccc1F`, the IC50 was 8 µM. Consider `O=C(O)c1ccc2c3c1cccc3c(=O)n1c3ccccc3nc21`, for which the IC50 is less than 0.1 µM. `COc1ccc2c(c1)/C(=N/NC(=O)c1cc(Br)ccc1O)C(=O)N2`: the IC50 was 9.4 µM. Regarding `Nc1nc(Nc2ccc(S(N)(=O)=O)cc2)nn1C(=S)Nc1c(F)cccc1F`, the IC50 amounted to 1.6 µM. Regarding `CC(C)n1cnc2c(Nc3cccc(Cl)c3)nc(NCCO)nc21`, the IC50 was determined as 16 µM.

With `c1ccc2c(CCNc3nccc(-c4c[nH]nc4-c4ccncc4)n3)c[nH]c2c1`, the IC50 is 51 µM. For `Cc1[nH]c2ccc(Cl)cc2c1-c1ccnc(N2CCCC2)n1`, the IC50 was greater than 100 µM. On the same count and under the same terms, the value for `N#CCCc1ccc2c(c1)C1Nc3ccc([N+](=O)[O-])cc3C1CC(=O)N2` (configuration not stated) was 3.5 µM; that for `COc1ccc2[nH]cc(-c3ccnc(NCCN4CCOCC4)n3)c2c1` was greater than 100 µM.

`O=C1NC(=O)/C(=C/c2c[nH]c3ccc(Br)cc23)N1`: the IC50 came to 4 µM. Same read-out and setting: the value for `COc1ccc2c(c1)[nH]c1c(N3CCN(C(N)=O)CC3)ncnc12` was 13 µM. The same measure, in the same setting: as for `O=C1Nc2ccccc2/C1=C1/Nc2ccccc2/C1=N\OCCC(O)CO` (configuration not stated), the figure is less than 0.1 µM; as for `Cc1[nH]c2ccccc2c1-c1ccnc(Nc2cccc(Cl)c2)n1`, 0.3 µM; as for `CCn1cnc2c(Nc3cccc(Cl)c3)nc(N[C@@H]3CCCC[C@@H]3N)nc21`, 3 µM. Take `CSc1cccc(N/C=C2\C(=O)Nc3ccccc32)c1`: the IC50 was 2.5 µM.

On to `Cc1[nH]c2ccc(Cl)cc2c1-c1ccnc(NCc2cccnc2)n1`, for which the IC50 was 48 µM. Consider `Fc1ccc(Nc2nccc(-c3c(-c4ccccc4)[nH]c4ccccc34)n2)cc1`, for which the IC50 is 7 µM.

In the case of `Cc1[nH]c2ccccc2c1-c1ccnc(N2CCN(c3ccccn3)CC2)n1`, the IC50 is greater than 100 µM. On to `Cn1ncc2c(N3CCOCC3)nc(NCCc3c[nH]c4ccccc34)nc21` [TDR79432], for which the IC50 was determined as 11 µM. With `COCCCNc1nccc(-c2c(C)[nH]c3ccc(Cl)cc23)n1`, the IC50 is 3 µM.

Another series deals with Vero. Briefly: Cytotoxicity against african green monkey Vero cells assessed as cell survival at up to 100 uM after 48 hrs by MTS assay. The series is classed as cell-based. The conditions noted are these: chlorocebus sabaeus. For orientation: Formazan colour is commonly taken as a measure of viable cells.
On to `Cc1[nH]c2ccccc2c1-c1ccnc(NCCc2c[nH]c3ccccc23)n1`, for which the Activity entry is on record as “Non-toxic”.

System in another series: not listed separately
Briefly: Cytotoxicity against mouse bone marrow macrophages assessed as cell survival at up to 100 uM after 48 hrs by MTS assay. The series is classed as cell-based. The note with it: macrophage.
Regarding `Cc1[nH]c2ccccc2c1-c1ccnc(NCCc2c[nH]c3ccccc23)n1`, the Activity result is recorded as “Non-toxic”.

System in a further series: not listed separately
Briefly: Cytotoxicity against mouse bone marrow macrophages assessed as cell survival at 30 uM after 24 hrs by photomicroscopy analysis. It is filed as cell-based. The note with it: macrophage.
For `Cc1[nH]c2ccccc2c1-c1ccnc(NCCc2c[nH]c3ccccc23)n1`, the Activity result is “Non-toxic”.

The target of a further series is T1, Interferon-induced, double-stranded RNA-activated protein kinase. In words: Competitive inhibition of human recombinant PKR.
Settings: not given
A word on the Ki: it is the equilibrium dissociation constant of an inhibitor or competing ligand from its target. On to `Cc1[nH]c2ccccc2c1-c1ccnc(NCCc2c[nH]c3ccccc23)n1`, for which the Ki turned out to be 3.4 µM.

The target in a further series is T2, Interferon-induced, double-stranded RNA-activated protein kinase (Mus musculus) (UniProt Q03963).
T2 sequence (whole entry): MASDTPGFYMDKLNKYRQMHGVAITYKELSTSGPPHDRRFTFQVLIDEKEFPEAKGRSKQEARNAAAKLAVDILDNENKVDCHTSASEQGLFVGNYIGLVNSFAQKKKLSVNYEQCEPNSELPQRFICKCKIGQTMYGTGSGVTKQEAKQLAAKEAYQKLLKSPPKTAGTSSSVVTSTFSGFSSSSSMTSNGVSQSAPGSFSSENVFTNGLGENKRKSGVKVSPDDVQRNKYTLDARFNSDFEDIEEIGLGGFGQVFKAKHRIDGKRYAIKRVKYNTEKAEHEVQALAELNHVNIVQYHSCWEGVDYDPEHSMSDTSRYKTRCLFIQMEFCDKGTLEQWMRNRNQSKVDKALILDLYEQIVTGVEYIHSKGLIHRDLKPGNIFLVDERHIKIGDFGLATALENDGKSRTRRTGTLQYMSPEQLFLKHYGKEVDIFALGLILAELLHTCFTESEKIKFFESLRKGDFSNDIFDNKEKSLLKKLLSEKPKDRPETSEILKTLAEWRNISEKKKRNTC
Briefly: Inhibition of poly[I:C]-induced PKR autophosphorylation mouse bone marrow macrophages treated immediately before addition of poly[I:C] by Western blotting.
Settings: not given
Background: Immunoblotting shows a protein as a band on a membrane.
For `Cc1[nH]c2ccccc2c1-c1ccnc(NCCc2c[nH]c3ccccc23)n1`, the inhibition entry was “Dose-dependent effect”.

In a further series the target is T2, Interferon-induced, double-stranded RNA-activated protein kinase (Mus musculus). Briefly: Inhibition of poly[I:C]-induced PKR autophosphorylation mouse bone marrow macrophages at 40 uM treated immediately before addition of poly[I:C] by Western blotting.
Settings: not given
Regarding `c1ccc(-c2[nH]c3ccccc3c2-c2ccnc(NCc3cccnc3)n2)cc1`, the inhibition entry was “inactive”. Take `c1ccc(-c2[nH]c3ccccc3c2-c2ccnc(NC3CCCC3)n2)cc1`: the inhibition entry is “inactive”.
